The source of these data is US20060019892A1 (Florida Atlantic University, priority 2003, published 2006).

Non-standard residues stand in square brackets, D forms with d. No end group written: not given here. Hyp = O=C(O)[C@@H]1C[C@@H](O)CN1

This assay deals with primary cultures of rat neonatal cortex (cultured cortical neurons). The format is cell-based.

A-O-A-N-S-V-W-S (A[Hyp]ANSVWS) [gla-2]: the “effect on Ca^++ flux in the cells” value is “reducing Ca^++ flux” and the “modulation of Ca^++ flux in cultured neurons from rat cortex” value is “modulate Ca^++ flux”.
